What was measured:
[1] = Stability at room temperature in solution or in diet by LC-MS/MS; assay type: physicochemical
Protocol: Samples were submitted to the W.M. Keck Metabolomics Research Laboratory (Office of Biotechnology, Iowa State University, Ames, IA) for targeted saracatinib LC–MS/MS quantification. One or two food pellets (1.5–3 g) were homogenized by mortar-and-pestle before being transferred and weighed in glass tubes with Teflon-lined screw caps. A reagent control sample was generated for each sample batch which was prepared in the same fashion as the samples. The weighed samples were then spiked with the internal standard, 250 μg of S-Hexylglutathione (Sigma-Aldrich CO., St. Louis, MO), added as 1.0 mL of from a 0.25 mg/mL solution in LC–MS grade 9:1 methanol: acetonitrile (Fisher Scientific, Waltham, MA). The extraction was initiated by the addition of 8 mL of 90% LC–MS grade methanol with 10% LC–MS grade water (Fisher Scientific, Waltham, MA). […]
LC separations were performed with an Agilent Technologies 1,290 Infinity Binary Pump UHPLC instrument equipped with an Agilent Technologies Eclipse C18 1.8 μm 2.1 mm × 100 mm analytical column that was coupled to an Agilent Technologies 6,540 UHD Accurate-Mass Q-TOF mass spectrometer (Agilent Technologies, Santa Clara, CA). […] Saracatinib was detected using electrospray ionization in positive ionization mode. […] During LC–MS data acquisition, reference masses were monitored for continuous mass calibration: m/z 121.050873 with m/z 922.009698. […]

[2] = Serum pharmacokinetics after a single oral dose (24 h study), LC-MS/MS, noncompartmental analysis; assay type: in vivo, Sprague Dawley rats
Protocol: Twenty eight adult male Sprague Dawley rats (8 weeks old; 250-300 g; Charles River, United States) were used in the study. Animals were housed in individual cages with a 12-h light–dark cycle in an enriched environment. The experiments were conducted after 2–3 days of acclimatization as per the approved protocols by the Institutional Animal Care and Use Committees (IACUC protocol: 21–109) and complied with the NIH ARRIVE Guidelines for the Care and Use of Laboratory Animals. Blood sampling was done by retro-orbital puncture as per IACUC protocol. Maximal blood collection was limited to less than 7.5% of the […] in one week. The serum was separated by centrifugation at 1,000–1,500 × g for 10 min and stored at −80°C until further analysis. All animals were euthanized at the end of the study with pentobarbital sodium and phenytoin sodium (100 mg/kg, i.p.) as per the American Veterinary Medical Association Guidelines for euthanasia. Tissue samples were collected and stored at −80°C until further analysis.
(§1) The animals were randomized into four experimental groups (n = 4–8). In group 1 (24 h study; Figure 1A), eight animals received a single oral gavage of saracatinib (20 mg/kg), and the blood sampling was done at 0.5, 1, 2, 4, 6, 8, 12, and 24 h post-treatment. Four animals each were euthanized at 4 h and 24 h, respectively. In group 2 (7-day repeated oral dosing study; Figure 1B), eight animals received repeated daily oral dosing of saracatinib (20 mg/kg of rat) at 24 h intervals; the blood sampling was done daily at 24 h intervals before the next dosing. Four animals were euthanized 24 h after the third repeated oral dosing, i.e., day 3 and the other four animals were euthanized at day 7. Group 3 (7-day SAR-in-Diet study; Figure 1C), received a single oral gavage of saracatinib (20 mg/kg of rat) followed by 24 h later SAR-in-Diet for 7 days (260 ppm). The blood sampling was done at 24 h post oral and daily at 24 h intervals for 7 days while the animals were on SAR-in-Diet. Four animals each were euthanized on day 3 and 7. Group 4 (Figure 1D) included four animals that were given 7 repeated doses of oral saracatinib (20 mg/kg/day for a week) followed by ad-libitum SAR-in-Diet at varying concentrations fed for up to 18 weeks (260 ppm diet for 2 weeks, 210 ppm diet for a week, 160 ppm for 4 weeks, and 50 ppm diet for 11 weeks) The tapering concentrations of saracatinib in the diet from 260 to 50 ppm was done to target a daily saracatinib dose rate in the range of 20–5 mg/kg respectively, in a 24 h feeding cycle. Blood samples were collected at the end of each diet change.
Samples were submitted to the W.M. Keck Metabolomics Research Laboratory (Office of Biotechnology, Iowa State University, Ames, IA) for targeted saracatinib LC–MS/MS quantification. Serum and hippocampus preparations were conducted using a modified version of the previously available extraction and sample preparation methods previously established ([18], [19]). 50–75 μL or 50–75 mg wet weight of each sample was added to microcentrifuge tubes. A Reagent control sample was generated for each sample batch, 75 μL of 0.9% NaCl which was extracted in the same fashion as the samples. The weighed samples were then spiked with the internal standard, 1.25 μg of S-Hexylglutathione (Sigma-Aldrich CO., St. Louis, MO), added as 10 μL of from a 0.125 mg/mL solution in LC–MS grade 9:1 methanol: acetonitrile (Fisher Scientific, Waltham, MA). The extraction was initiated by the addition of 0.4 mL of 90% ice-cold LC–MS grade methanol with 10% LC–MS grade water (Fisher Scientific, Waltham, MA). For the hippocampus samples, after adding the 90% methanol to the samples, two 2.4 mm metal beads were added to each sample, the tissue was then homogenized using a Bead Mill 24 Homogenizer (Thermo Fisher Scientific, Inc., Waltham, MA, United States). […]

[3] = system: organophosphate (OP) induced epilepsy models; set-up: method as in PMID 35052568; conditions: treatment for a week; cited from earlier work
[4] = system: kainate (KA) model of temporal lobe epilepsy; set-up: method as in PMID 34087381; conditions: treating for a week, repeated oral dosing; cited from earlier work
[5] = Hippocampal concentrations after a single oral dose (24 h study); assay type: in vivo, Sprague Dawley rats; conditions: single oral dose 20 mg/kg
Protocol: as §1
(§2) Samples were submitted to the W.M. Keck Metabolomics Research Laboratory (Office of Biotechnology, Iowa State University, Ames, IA) for targeted saracatinib LC–MS/MS quantification. Serum and hippocampus preparations were conducted using a modified version of the previously available extraction and sample preparation methods previously established ([18], [19]). 50–75 μL or 50–75 mg wet weight of each sample was added to microcentrifuge tubes. […]

[6] = set-up: method as in PMID 19775203; conditions: healthy humans, 250 mg/day once daily for 10–14 days; cited from earlier work
[7] = 7-day repeated daily oral dosing study: serum and hippocampal concentrations; assay type: in vivo, Sprague Dawley rats
Protocol: as §1, §2

ABCB1 = system: ABCB1; set-up: method as in PMID 22623106; conditions: cited from earlier work
[8] = male, Sprague Dawley, single oral dose 20 mg/kg, rat serum, median, n=4

CN1CCN(CCOc2cc(OC3CCOCC3)c3c(Nc4c(Cl)ccc5c4OCO5)ncnc3c2)CC1 [saracatinib, Saracatinib]
Time stable at room temperature [1]: > 4 weeks | Stability at room temperature (percent) ([1]; >4 weeks): 97 ± 1.56% | Time saracatinib was detected in the serum ([2]; after a single oral dose 20 mg/kg): up to 24 h | Tmax ([2]; male, Sprague Dawley, rat, serum, po, 20 mg/kg, single oral dose 20 mg/kg, rat serum, median, n=4): 6 h | AUC(0-t) ([2]; male, Sprague Dawley, single oral dose 20 mg/kg, rat serum, 0 to 24 h, median, n=4, read-out: AUC (0-tlast)): 6990 ng·h/mL | AUC(0-inf) [2, 8]: 7060 ng·h/mL | CL/F [2, 8]: 47.2 mL/min/kg | Cmax [2, 8]: 954 ng/mL | Vd/F [2, 8]: 15.6 L/kg | half-life [2, 8]: 4.12 h | k el [2, 8]: 5e-05 s⁻¹ | Protective effects [3]: limited | Long-term effects (reactive gliosis, neurodegeneration, epileptiform spiking, spontaneously recurring seizures) [4]: sufficient to mitigate long-term effects | concentration at 4 h ([5]; male, Sprague Dawley, rat, hippocampus, 4 h, read-out: Hippocampal level): > 500 ng/g | Hippocampal versus serum concentrations ([5]; 4 h and 24 h): higher than the serum concentrations | Hippocampal concentration at 24 h compared to 4 h ([5]; 24 h): dropped to nearly half | T1/2 [6]: 40 h | Tolerability [6]: well tolerated | concentration at 3 day ([7]; male, Sprague Dawley, rat, hippocampus, repeated oral dosing 20 mg/kg/day, day 3, read-out: Hippocampal saracatinib concentration): 239 ± 143 ng/g | concentration at 7 day ([7]; male, Sprague Dawley, rat, hippocampus, repeated oral dosing 20 mg/kg/day, day 7, read-out: Hippocampal saracatinib concentration): 271 ± 62.3 ng/g | Serum saracatinib concentration (trough, 24 h after dose) ([7]; repeated daily oral dosing 20 mg/kg, first three days): ~ 100 ng/mL | Effect on ABCB1 (ABCB1): only inhibits ABCB1 transport function, without altering ABCB1 expression or AKT phosphorylation

From paper PMC10666625, “Exploring the benefits of in-diet versus repeated oral dosing of saracatinib (AZD0530) in chronic studies: insights into pharmacokinetics and animal welfare” (Frontiers in Veterinary Science, 2023)
